Experiments:
[1] = system: methane-grown methylotrophic microorganisms; test: Epoxidation by methane-grown cells of the strains of the invention; type: cell-based
Description: (§1) The pH of the nutrient medium was adjusted to 7.0 by the addition of acid or base and 50 ml samples of the nutrient medium were charged into a plurality of 300 ml shaker flasks. The shaker flasks were inoculated with an inoculating loop of cells from an agar plate containing homogeneous colonies of the microorganisms on the plate (the purity of the isolates was confirmed by microscopic examination. The isolates had been maintained on agar plates under an atmosphere of methane and air having a 1:1 v/v gas ratio which had been transferred evey two weeks. The gaseous phase of the inoculated flasks was then replaced with a gas mixture comprised of methane and air having a ratio of 1:1 on a v/v basis. The inoculated flasks were sealed air tight and were incubated on a rotary shaker of orbital radius 2.5 cm at 250 rpm and at 30° C. for two days until turbidity in the medium had developed.
The cells were harvested by centrifugation at 10,000×g. at 4° C. for 30 minutes. The cell pellet was washed twice with a 0.15 M phosphate buffer at a pH of 7.0 (containing 0.002 M MgCl2). […]
A 0.5 ml sample of each washed cell suspension (2 mg cells) was put into 10 ml vials at 4° C. which were sealed with a rubber cap. […] Samples of product (3 μl) were withdrawn periodically with a microsyringe and the products were analyzed by gas chromatography (ionization flame detector column). […]

[2] = system: Methylocystis parvus (CRL 18 PM4) NRRL B-11,204; test: Oxidation by washed cell suspensions of methane-grown cells; type: cell-based; settings: methane-grown cells; product 2-butanone
Description: as §1
The cells were harvested by centrifugation at 10,000×g. at 4° C. for 30 minutes. The cell pellet was washed twice with a 0.15 M phosphate buffer at a pH of 7.0 (containing 0.002 M MgCl2). The washed cells were then suspended in a 0.15 M phosphate buffer at pH 7.0.
A 0.5 ml sample of each washed cell suspension (2 mg cells) was put into 10 ml vials at 4° C. which were sealed with a rubber cap. The gaseous phase of the vials was removed with vacuum and then was replaced with a gas mixture of the oxidative substrate (e.g., methane) and oxygen at a 1:1 v/v ratio. The vials were then incubated at 30 ° C. on a rotary shaker at 300 rpm. Samples of product (3 μl) were withdrawn periodically with a microsyringe and the products were analyzed by gas chromatography (ionization flame detector column).
The newly discovered and isolated microorganism strains of the present invention were each grown aerobically in the presence of methane in the manner described above. The methane-grown microbial cells were then washed, recovered and put to use in oxidizing an oxidative substrate by the procedure described above except in the case of a liquid substrate 10 μl of the substrate were used.

| SMILES | epoxide product formation [1] | Conversion Rate to Ketone [2] [μmoles/hr/mg Protein] |
| --- | --- | --- |
| C=CCCCC [hexene-1] | did not produce any detectable epoxide product |  |
| CCC(C)=O [Butanone] |  | 1.0 |
